Measured values taken from patent publication US9725449B2, “Tricyclic compounds as anticancer agents” (BRISTOL-MYERS SQUIBB COMPANY, priority 2015, dated 2017).

Molecular target: BRD4 (Homo sapiens, UniProt O60885)
Assay: Time resolved fluorescence resonance energy transfer (TR-FRET) binding assay, bromodomain BRD4
Settings: one of the FRET assays described; read-out: FRET BRD4 IC50

| Molecule | IC50 [nM] |
| --- | --- |
| 2-{5-[4-(^2H3)Methyl-1-methyl-1H-1,2,3-triazol-5-yl]-8-[1-(pyridin-2-yl)butyl]-3,8,12-triazatricyclo[7.4.0.0^2,^7]trideca-1(13),2(7),3,5,9,11-hexaen-11-yl}propan-2-ol [Example 357] | < 10 |
| 2-{8-[(3-Fluoropyridin-2-yl)(oxan-4-yl)methyl]-11-[4-(^2H3)methyl-1-methyl-1H-1,2,3-triazol-5-yl]-3,8,10-triazatricyclo[7.4.0.0^2,^7]trideca-1(9),2,4,6,10,12-hexaen-5-yl}propan-2-ol [Example 362] | < 10 |
| 2-{8-[(3-Fluoropyridin-2-yl)(oxan-4-yl)methyl]-11-[4-(^2H3)methyl-1-methyl-1H-1,2,3-triazol-5-yl]-3,8,10-triazatricyclo[7.4.0.0^2,^7]trideca-1(9),2,4,6,10,12-hexaen-5-yl}propan-2-ol [Example 363] | < 1 |
| 2-{11-Chloro-5-[4-(^2H3)methyl-1-methyl-1H-1,2,3-triazol-5-yl]-8-[(S)-oxan-4-yl(phenyl)methyl]-3,8,12-triazatricyclo[7.4.0.0^2,^7]trideca-1(13),2(7),3,5,9,11-hexaen-13-yl}propan-2-ol [Example 293] | < 10 |
| 2-{13-Methoxy-5-[4-(^2H3)methyl-1-methyl-1H-1,2,3-triazol-5-yl]-8-[(S)-oxan-4-yl(phenyl)methyl]-3,8,12-triazatricyclo[7.4.0.0^2,^7]trideca-1(13),2(7),3,5,9,11-hexaen-11-yl}propan-2-ol [Example 344] | < 10 |
| COc1ccc2c3ncc(-c4c(C)nnn4C)cc3n(C(c3cccc(F)c3)C3CCOCC3)c2n1 (racemic) [Example 16, 5-(Dimethyl-1H-1,2,3-triazol-5-yl)-8-[(3-fluorophenyl)(oxan-4-yl)methyl]-11-methoxy-3,8,10-triazatricyclo[7.4.0.0^2,^7]trideca-1(13),2(7),3,5,9,11-hexaene] | < 10 |
| COc1ccc2c3ncc(-c4c(C)nnn4C)cc3n(C(c3cccc(F)c3F)C3CCOCC3)c2n1 (racemic) [Example 17, 8-[(2,3-Difluorophenyl)(oxan-4-yl)methyl]-5-(dimethyl-1H-1,2,3-triazol-5-yl)-11-methoxy-3,8,10-triazatricyclo[7.4.0.0^2,^7]trideca-1(13),2(7),3,5,9,11-hexaene] | < 10 |
| COc1nccc2c3ncc(-c4c(C)nnn4C)cc3n(C(c3c(F)cc(F)cc3F)C3CCOCC3)c12 (racemic) [Example 24, 5-(Dimethyl-1H-1,2,3-triazol-5-yl)-10-methoxy-8-[oxan-4-yl(2,4,6-trifluorophenyl)methyl]-3,8,11-triazatricyclo[7.4.0.0^2,^7]trideca-1(13),2(7),3,5,9,11-hexaene] | < 10 |
| COc1nccc2c3ncc(-c4c(C)nnn4C)cc3n(C(c3ccc(F)cc3F)C3CCOCC3)c12 (racemic) [Example 25, 8-[(2,4-Difluorophenyl)(oxan-4-yl)methyl]-5-(dimethyl-1H-1,2,3-triazol-5-yl)-10-methoxy-3,8,11-triazatricyclo[7.4.0.0^2,^7]trideca-1(13),2(7),3,5,9,11-hexaene] | < 10 |
| COc1nccc2c3ncc(-c4c(C)nnn4C)cc3n(C(c3cc(F)ccc3F)C3CCOCC3)c12 (racemic) [Example 26, 8-[(2,5-Difluorophenyl)(oxan-4-yl)methyl]-5-(dimethyl-1H-1,2,3-triazol-5-yl)-10-methoxy-3,8,11-triazatricyclo[7.4.0.0^2,^7]trideca-1(13),2(7),3,5,9,11-hexaene] | < 10 |
| COc1nccc2c3ncc(-c4c(C)nnn4C)cc3n(C(c3c(F)cccc3F)C3CCOCC3)c12 (racemic) [Example 27, 8-[(2,6-Difluorophenyl)(oxan-4-yl)methyl]-5-(dimethyl-1H-1,2,3-triazol-5-yl)-10-methoxy-3,8,11-triazatricyclo[7.4.0.0^2,^7]trideca-1(13),2(7),3,5,9,11-hexaene] | < 10 |
| COc1ccc2c3ncc(-c4c(C)nnn4C)cc3n(C(c3ccccc3F)C3CCOCC3)c2n1 (racemic) [Example 28, 5-(Dimethyl-1H-1,2,3-triazol-5-yl)-8-[(2-fluorophenyl)(oxan-4-yl)methyl]-11-methoxy-3,8,10-triazatricyclo[7.4.0.0^2,^7]trideca-1(13),2(7),3,5,9,11-hexaene] | < 10 |
| COc1nccc2c3ncc(-c4c(C)nnn4C)cc3n(C(c3ccccc3F)C3CCOCC3)c12 (single isomer, unassigned) [Example 18, 5-(Dimethyl-1H-1,2,3-triazol-5-yl)-8-[(2-fluorophenyl)(oxan-4-yl)methyl]-10-methoxy-3,8,11-triazatricyclo[7.4.0.0^2,^7]trideca-1(13),2(7),3,5,9,11-hexaene] | < 10 |
| COc1nccc2c3ncc(-c4c(C)nnn4C)cc3n(C(c3ccccc3F)C3CCOCC3)c12 (single isomer, unassigned) [Example 19, 5-(Dimethyl-1H-1,2,3-triazol-5-yl)-8-[(2-fluorophenyl)(oxan-4-yl)methyl]-10-methoxy-3,8,11-triazatricyclo[7.4.0.0^2,^7]trideca-1(13),2(7),3,5,9,11-hexaene] | < 10 |
| COc1nccc2c3ncc(-c4c(C)nnn4C)cc3n(C(c3cccc(F)c3)C3CCOCC3)c12 (single isomer, unassigned) [Example 20, 5-(Dimethyl-1H-1,2,3-triazol-5-yl)-8-[(3-fluorophenyl)(oxan-4-yl)methyl]-10-methoxy-3,8,11-triazatricyclo[7.4.0.0^2,^7]trideca-1(13),2(7),3,5,9,11-hexaene] | < 10 |
| COc1nccc2c3ncc(-c4c(C)nnn4C)cc3n(C(c3cccc(F)c3)C3CCOCC3)c12 (single isomer, unassigned) [Example 21, 5-(Dimethyl-1H-1,2,3-triazol-5-yl)-8-[(3-fluorophenyl)(oxan-4-yl)methyl]-10-methoxy-3,8,11-triazatricyclo[7.4.0.0^2,^7]trideca-1(13),2(7),3,5,9,11-hexaene] | < 1500 |
| COc1nccc2c3ncc(-c4c(C)nnn4C)cc3n(C(c3cccc(F)c3F)C3CCOCC3)c12 (single isomer, unassigned) [Example 22, 8-[(2,3-Difluorophenyl)(oxan-4-yl)methyl]-5-(dimethyl-1H-1,2,3-triazol-5-yl)-10-methoxy-3,8,11-triazatricyclo[7.4.0.0^2,^7]trideca-1(13),2(7),3,5,9,11-hexaene] | < 10 |
| COc1nccc2c3ncc(-c4c(C)nnn4C)cc3n(C(c3cccc(F)c3F)C3CCOCC3)c12 (single isomer, unassigned) [Example 23, 8-[(2,3-Difluorophenyl)(oxan-4-yl)methyl]-5-(dimethyl-1H-1,2,3-triazol-5-yl)-10-methoxy-3,8,11-triazatricyclo[7.4.0.0^2,^7]trideca-1(13),2(7),3,5,9,11-hexaene] | < 1500 |
| [2H]C([2H])([2H])c1nnn(C)c1-c1cnc2c3c(OC)ncc(S(C)(=O)=O)c3n(C(c3c(F)cc(F)cc3F)C3CCOCC3)c2c1 (single isomer, unassigned) [Example 83, 10-Methanesulfonyl-13-methoxy-5-[4-(^2H3)methyl-1-methyl-1H-1,2,3-triazol-5-yl]-8-[oxan-4-yl(2,4,6-trifluorophenyl)methyl]-3,8,12-triazatricyclo[7.4.0.0^2,^7]trideca-1(13),2(7),3,5,9,11-hexaene] | < 1 |
| [2H]C([2H])([2H])c1nnn(C)c1-c1cnc2c3c(OC)ncc(S(C)(=O)=O)c3n(C(c3c(F)cc(F)cc3F)C3CCOCC3)c2c1 (single isomer, unassigned) [Example 84, 10-Methanesulfonyl-13-methoxy-5-[4-(^2H3)methyl-1-methyl-1H-1,2,3-triazol-5-yl]-8-[oxan-4-yl(2,4,6-trifluorophenyl)methyl]-3,8,12-triazatricyclo[7.4.0.0^2,^7]trideca-1(13),2(7),3,5,9,11-hexaene] | < 1500 |
| [2H]C([2H])([2H])c1nnn(C)c1-c1cnc2c3c(OC)ncc(S(C)(=O)=O)c3n(C(c3cccc(F)c3)C3CCOCC3)c2c1 (single isomer, unassigned) [Example 86, 8-[(3-Fluorophenyl)(oxan-4-yl)methyl]-10-methanesulfonyl-13-methoxy-5-[4-(^2H3)methyl-1-methyl-1H-1,2,3-triazol-5-yl]-3,8,12-triazatricyclo[7.4.0.0^2,^7]trideca-1(13),2(7),3,5,9,11-hexaene] | < 10 |
| [2H]C([2H])([2H])c1nnn(C)c1-c1cnc2c3c(OC)ncc(S(C)(=O)=O)c3n(C(c3cccc(F)c3)C3CCOCC3)c2c1 (single isomer, unassigned) [Example 87, 8-[(3-Fluorophenyl)(oxan-4-yl)methyl]-10-methanesulfonyl-13-methoxy-5-[4-(^2H3)methyl-1-methyl-1H-1,2,3-triazol-5-yl]-3,8,12-triazatricyclo[7.4.0.0^2,^7]trideca-1(13),2(7),3,5,9,11-hexaene] | < 1500 |
| COc1ncc(S(C)(=O)=O)c2c1c1ncc(-c3c(C)noc3C)cc1n2C(c1ccccc1)C1CCC(F)(F)CC1 (single isomer, unassigned) [Example 88, 8-[(4,4-Difluorocyclohexyl)(phenyl)methyl]-5-(dimethyl-1,2-oxazol-4-yl)-10-methanesulfonyl-13-methoxy-3,8,12-triazatricyclo[7.4.0.0^2,^7]trideca-1(13),2(7),3,5,9,11-hexaene] | < 10 |
| COc1ncc(S(C)(=O)=O)c2c1c1ncc(-c3c(C)noc3C)cc1n2C(c1ccccc1)C1CCC(F)(F)CC1 (single isomer, unassigned) [Example 89, 8-[(4,4-Difluorocyclohexyl)(phenyl)methyl]-5-(dimethyl-1,2-oxazol-4-yl)-10-methanesulfonyl-13-methoxy-3,8,12-triazatricyclo[7.4.0.0^2,^7]trideca-1(13),2(7),3,5,9,11-hexaene] | < 1500 |
| COc1ncc(S(C)(=O)=O)c2c1c1ncc(-c3c(C)nnn3C)cc1n2C(c1ccccc1)C1CCC(F)(F)CC1 (single isomer, unassigned) [Example 90, 8-[(4,4-Difluorocyclohexyl)(phenyl)methyl]-5-(dimethyl-1H-1,2,3-triazol-5-yl)-10-methanesulfonyl-13-methoxy-3,8,12-triazatricyclo[7.4.0.0^2,^7]trideca-1(13),2(7),3,5,9,11-hexaene] | < 10 |
